Measured values published in BindingDB's records for doi:10.1080/14756360500179333 (University of Karachi, 2005).

Target: Tyrosinase (Agaricus bisporus)
Assay: Tyrosinase inhibition assays were performed in a 96-well microplate format using SpectraMax 340 (Molecular Devices, CA, USA) microplate reader according to method developed earlier.
Conditions: pH 6.8

IC50	Structure (SMILES)
29.9 µM	CC(=O)N1CCC(N2CCCCC2)CC1
1.72 µM	Cc1ccc(CN2CCC(N3CCCCC3)CC2)cc1 [Tyrosinase Inhibitor, 4]
8.76 µM	O=[N+]([O-])c1ccc(S(=O)(=O)N2CCC(N3CCCCC3)CC2)cc1 [Tyrosinase Inhibitor, 8]

Structure (SMILES)	IC50
C1CCN(C2CCNCC2)CC1 [Tyrosinase Inhibitor, 1]	111 µM
